{"source": "paper PMC11536652", "about": "(BMC Chemistry, 2024)", "key": {"[1]": {"conditions": "previous study, humans; cited from earlier work"}, "[2]": {"test": "Stability of tepotinib in QC plasma samples", "type": "in vitro ADME, rat"}, "[3]": {"conditions": "tepotinib 50 mg/kg oral, rat plasma, mean ± SD"}}, "note": "Where two headings read alike, the source gives them in different places.", "data": [{"smiles": "CN1CCC(COc2cnc(-c3cccc(Cn4nc(-c5cccc(C#N)c5)ccc4=O)c3)nc2)CC1", "note": "[tepotinib, Tepotinib]", "values": [{"measurement": "Tmax", "setting": "[1]", "result": 9, "unit": "h"}, {"measurement": "stability maintained (long-term stability)", "setting": "[2]; -80 ℃ refrigerator", "result": 4, "unit": "weeks"}, {"measurement": "stability maintained over freeze‒thaw cycles", "setting": "[2]; -80 ℃ to ambient temperature", "result": 3, "unit": "freeze‒thaw cycles"}, {"measurement": "stability maintained (short-term stability)", "setting": "[2]; ambient temperature", "result": 3, "unit": "h"}, {"measurement": "stability maintained in autosampler", "setting": "[2]; autosampler (10 ℃)", "result": 6, "unit": "h"}, {"measurement": "CLz/F", "setting": "[3]; Group A: control (0.5% CMC-Na)", "result": "10.88 ± 1.04", "unit": "L/h"}, {"measurement": "AUC(0-t)", "setting": "[3]; male, Sprague-Dawley, rat, in vivo, po, 50 mg/kg, AUC0→t, Group A: control (0.5% CMC-Na)", "result": "4600 ± 458", "unit": "ng·h/mL"}, {"measurement": "AUC(0-inf)", "setting": "[3]; male, Sprague-Dawley, rat, in vivo, po, 50 mg/kg, AUC0→∞, Group A: control (0.5% CMC-Na)", "result": "4630 ± 454", "unit": "ng·h/mL"}, {"measurement": "Cmax", "setting": "[3]; male, Sprague-Dawley, rat, in vivo, po, 50 mg/kg, Cmax, Group A: control (0.5% CMC-Na)", "result": "180 ± 38.2", "unit": "ng/mL"}, {"measurement": "MRT last", "setting": "[3]; male, Sprague-Dawley, rat, in vivo, po, 50 mg/kg, MRT0→t, Group A: control (0.5% CMC-Na)", "result": "18.9 ± 1.21", "unit": "h"}, {"measurement": "MRT inf", "setting": "[3]; male, Sprague-Dawley, rat, in vivo, po, 50 mg/kg, MRT0→∞, Group A: control (0.5% CMC-Na)", "result": "19.4 ± 1.36", "unit": "h"}, {"measurement": "Tmax", "setting": "[3]; male, Sprague-Dawley, rat, in vivo, po, 50 mg/kg, Tmax, Group A: control (0.5% CMC-Na)", "result": "8.8 ± 3.03", "unit": "h"}, {"measurement": "half-life", "setting": "[3]; male, Sprague-Dawley, rat, in vivo, po, 50 mg/kg, t1/2, Group A: control (0.5% CMC-Na)", "result": "9.4 ± 2.35", "unit": "h"}]}]}
